Source: PubChem BioAssay (NCI)
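1) Cells in 96-well plates. 2) Compound, 48 h, 5 concentrations. 3) Linear interpolation between surrounding doses. 4) Unreached endpoint = highest concentration. At the GI50, growth is halved. TGI: total growth inhibition.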

What was measured:
Test in all cases: NCI-60 cell line screen, 48 h
786-0 renal = tested on: 786-0 renal
HS 578T breast = tested on: HS 578T breast
NCI-H23 lung = tested on: NCI-H23 lung
NCI-H460 lung = tested on: NCI-H460 lung
OVCAR-3 ovarian = tested on: OVCAR-3 ovarian
RPMI-8226 leukemia = tested on: RPMI-8226 leukemia
SF-295 CNS = tested on: SF-295 CNS
SNB-19 CNS = tested on: SNB-19 CNS
SR leukemia = tested on: SR leukemia
T-47D breast = tested on: T-47D breast

Compound | GI50 (786-0 renal) [µM] | TGI (786-0 renal) [µM] | GI50 (HS 578T breast) [µM] | TGI (HS 578T breast) [µM] | GI50 (NCI-H23 lung) [µM] | TGI (NCI-H23 lung) [µM] | GI50 (NCI-H460 lung) [µM] | TGI (NCI-H460 lung) [µM] | GI50 (OVCAR-3 ovarian) [µM] | TGI (OVCAR-3 ovarian) [µM] | GI50 (RPMI-8226 leukemia) [µM] | TGI (RPMI-8226 leukemia) [µM] | GI50 (SF-295 CNS) [µM] | TGI (SF-295 CNS) [µM] | GI50 (SNB-19 CNS) [µM] | TGI (SNB-19 CNS) [µM] | GI50 (SR leukemia) [µM] | TGI (SR leukemia) [µM] | GI50 (T-47D breast) [µM] | TGI (T-47D breast) [µM]
CCN(CC)C1CCC(Nc2c(C(C)=O)cnc3ccc(-c4ccc(O)c(Cl)c4)cc23)CC1 (stereo not given) | 1.64 | 44.8 | 0.157 | 2.81 | 0.474 | 3.1 | 0.311 | 1.87 | 0.38 | 3.15 | 0.393 | 2.1 | 4.46 | 24.9 | 1.75 | 69.6 | 0.195 | 0.72 | 1.94 | > 100
CC(=O)Oc1ccc(/C(=C(\C)c2ccc(Cl)cc2)c2ccc(OCCN3CCCCC3)cc2)cc1 | 1.59 | 3.16 | 2.14 | 4.82 | 1.82 | 4.43 | 1.91 | 3.66 | 1.65 | 3.25 | 2.1 | 4.64 | 1.72 | 3.27 | 2.26 | 5.8 | 0.739 | 3.06 | 1.09 | 4.37
O=C(Nc1n[nH]c2nnc(-c3cccnc3)cc12)C1CC1 | 3.65 | > 25 | 0.0833 | > 9.38 | > 15.9 | > 25 | 8.13 | > 25 | 0.114 | > 18.4 | > 25 | > 25 | 0.338 | > 7.49 | > 11.9 | > 25 | 6.23 | > 25 | > 12.9 | > 25
O=c1oc2ccc(Br)cc2c(=O)n1-c1ccc(I)cc1F | 1.96 | 6.16 | 0.287 | 1.36 | 0.328 | 1.89 | 0.367 | 5.57 | 0.336 | 8.52 | 0.266 | 1.16 | 1.5 | 3.12 | 0.363 | > 70 | 0.417 | 21.9 | 0.279 | 1.52
CN(Cc1cc(Cl)cc(Cl)c1O)Cc1c(O)ccc2ccccc12 |  | 48.4 |  | 44.4 |  | 33.5 |  | 35.1 |  | 35.7 |  | 73.1 |  | 36.1 |  | 37.9 |  | 68.2 |  | 43
CN(C)c1ccc(/C=C/C2=[N+](C)c3ccccc3C2(C)C)cc1 | 2.06 | 18.9 | 4.15 | > 100 | 0.286 | 11.9 | 0.746 | 10.7 | 0.301 | 12.3 | 0.247 | 3.48 | 1.12 | 6.64 | 0.691 | 18.4 | 0.13 | 13.9 | 0.401 | 9.29
Cn1c(NCC(O)CN2CCCC2)cc(=O)n(C)c1=O (stereo not given) | > 100 | > 100 | > 100 | > 100 | > 100 | > 100 | > 100 | > 100 | > 100 | > 100 | > 100 | > 100 | > 100 | > 100 | > 100 | > 100 | > 100 | > 100 | > 100 | > 100
